Columns and labels:
Format in all cases: cell-based
[1] = system: human duodenal organoids; assay: Uptake of radiolabeled fructose with inhibitors/competitor; settings: 14C-fructose, 2.1mM D-fructose; 1mM Phloretin or Rubusoside or 2.1mM D-glucose as competitor; inhibitors added 30min prior; dissolved (broken up) organoids, 45 min 37 °C, pH 7.4; liquid scintillation; n = 5–6
Procedure: (§1) Subsequently, medium was changed to CCM for 5 days. […]
(§2) 1.6. Glucose and Fructose transport studies
(§3) Grenoble, France) and transferred in tubes. After repeated (2x) centrifugation (200g, 5min) and […]
indicated substrate/inhibitor for 45 min at 37 °C. Transporter ac tivities were assessed using (non- […]
(§4) from Sigma) and 1mM Rubusoside (VWR, Avantor).
(§5) Intestinal organoids – Transport & Metabolism […]
(§6) addition of fructose. Following incubation, substrate/inhibitor solutions were removed from intact […]
(§7) centrifuged (300g, 10min). For “broken up” organoids, dissociated organoids were centrifuged (300g, 3min) and washed three times with PBS. During these steps, PBS for washing contained glucose and […]
(§8) 3 ml of Bioscint® Scintillation […]
(§9) organoids was quantified using a liquid scintillation counter (PerkinElmer). Residual amounts of all […]
(§10) in dissolved organoids derived from the ileum. […]
(§11) Calculations and imaging data […]
(§12) intestinal Wt organoids or in human duodenal organoids.

[2] = system: human duodenal organoids; assay: Live-cell imaging of intracellular acidification (BCECF-AM), human organoids; settings: 40µM CCCP; for intracellular acidification: BCECF-AM 1μM, ratio F(λex490nm)/F(λex450nm), 50mM Gly-Sar, 50mM Gly-Gly, 5mM Cefadroxil, 50mM glucose, 50mM fructose as negative controls, minimum 6 experiments, representative courses
Procedure: 1.7. Peptide and drug transport studies
For peptide and drug transport studies, human organoids were cultivated for 7-9 days after passaging. […]
1.8. Imaging of intracellular acidification
For live-cell imaging of intracellular acidification, organoids were incubated with 1μM BCECF-AM (Life Technologies) in HEPES-saline buffer containing 0.01% pluronic F127, 375μM eserine and 2mM […]
substances used were: 50mM Gly-Sar, 50mM Gly-Gly, 5mM Cefadroxil, 40µM CCCP (Sigma), 100µM Amilorid, and 50µM S1611 (Sanofi Aventis). Image series were captured using a Leica […]
and the fluorescence ratio F(λex490nm)/ F(λex450nm) was calculated. Calculations and imaging data analyses were performed using the Leica Application Suite Advanced Fluorescence software. All imaging experiments were performed minimum 6 times and representative time courses are depicted in the manuscript. Imaging of intracellular acidification was performed as indicated in murine small intestinal Wt organoids or in human duodenal organoids.

[3] = system: human organoids derived from different regions of the small intestine; assay: Uptake of radiolabeled glucose with transporter inhibitors; settings: 14C-glucose, 5.8mM D-glucose; 1mM inhibitor added 10min prior; intact organoids in matrigel, HEPES-saline buffer pH 7.4, 30 min 37 °C; liquid scintillation; n = 5–6; Figure 2B
Procedure: as §1, §2, §3
Transporter ac tivities were assessed using (non- […]
as §4, §5, §6, §7, §8, §9, §10, §11, §12

| Compound | effect on fructose transport [1] | intracellular acidification [2] | effect on glucose uptake [3] | intracellular pH on stimulation subsequent to Gly-Sar, Gly-Gly and cefadroxil ([2]; BCECF-AM, human duodenal organoids, Supplementary Figure 3A) |
| --- | --- | --- | --- | --- |
| OC[C@H]1OC(O)[C@H](O)[C@@H](O)[C@@H]1O (stereo partly shown) [glucose] | diminished | neither glucose nor fructose (used as negative controls) led to an intracellular acidification | – | – |
| CC1=C(C(=O)O)N2C(=O)[C@@H](NC(=O)[C@H](N)c3ccc(O)cc3)[C@H]2SC1 [cefadroxil] | – | intracellular acidification was demonstrated | – | – |
| O=C(CCc1ccc(O)cc1)c1c(O)cc(O)cc1O[C@@H]1O[C@H](CO)[C@@H](O)[C@H](O)[C@H]1O [phloridzin] | – | – | blunted glucose uptake | – |
| O=C(CO)[C@@H](O)[C@H](O)[C@H](O)CO [fructose, D-fructose] | – | neither glucose nor fructose (used as negative controls) led to an intracellular acidification | – | – |
| O=C(CCc1ccc(O)cc1)c1c(O)cc(O)cc1O [phloretin] | diminished | – | blunted glucose uptake, which was more pronounced | – |
| carbonyl cyanide m-chlorophenyl hydrazine [CCCP] | – | intracellular acidification was demonstrated | – | additional decline in intracellular pH |
| glycyl-sarcosin [Gly-Sar] | – | intracellular acidification was demonstrated | – | – |

Source: PMC7516017, “Organoids to Study Intestinal Nutrient Transport, Drug Uptake and Metabolism – Update to the Human Model and Expansion of Applications” (Frontiers in Bioengineering and Biotechnology, 2020)
